Test results: ChEMBL document CHEMBL1201862, “PubChem BioAssay data set” (2004)
Calls of active or inactive are those of the source.

Tests used:
[1] = system: Streptococcus sp. 'group A'; assay: growth inhibition of control SK(-) GAS strain, dose response, counter-screen for streptokinase expression inhibitor project, luminescence, kanamycin, BacTiterGlo, confirmation (AID 1900); assay type: functional, organism-based
Streptokinase A = target: T1, Streptokinase A (Streptococcus pyogenes serotype M1, UniProt P10520); assay: S. pyogenes streptokinase expression inhibitors, potency, dose response, plasminogen activation absorbance, OD405 (AID 1914); assay type: functional, Streptococcus pyogenes M1 GAS;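 also: secreted streptokinase activity via plasminogen activation per viability signal from cell pellet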
T1 sequence (P10520 whole entry): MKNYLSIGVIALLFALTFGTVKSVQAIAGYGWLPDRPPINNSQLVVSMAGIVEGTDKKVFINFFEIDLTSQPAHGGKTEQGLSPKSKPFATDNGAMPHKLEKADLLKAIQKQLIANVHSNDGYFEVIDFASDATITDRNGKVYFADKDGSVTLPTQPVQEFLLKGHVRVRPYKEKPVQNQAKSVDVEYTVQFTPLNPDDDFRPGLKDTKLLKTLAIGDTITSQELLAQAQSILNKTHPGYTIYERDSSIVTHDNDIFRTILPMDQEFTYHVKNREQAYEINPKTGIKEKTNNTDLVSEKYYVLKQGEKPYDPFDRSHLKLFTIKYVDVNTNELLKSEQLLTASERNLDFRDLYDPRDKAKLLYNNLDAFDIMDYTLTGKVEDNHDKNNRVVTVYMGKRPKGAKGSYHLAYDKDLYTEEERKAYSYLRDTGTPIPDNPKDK

Streptococcus [2] = assay: Group A Streptococcus viability loss, dose response, counter-screen for streptokinase expression inhibitor project, luminescence, BacTiterGlo (AID 1915); assay type: functional, organism-based;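 also: potency for reduction of bacterial viability or growth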
Streptococcus [3] = assay: Luminescence Microorganism-Based Dose Response Follow up to Identify Compounds Cytotoxic to Streptococcus. [Related pubchem assays: 1677 (Project Summary), 1915, 1914, 1902 (Retest at Dose), 1900 (Counter Screen), 1662 (Primary HTS)]; assay type: functional, organism-based
Beta-galactosidase = Beta-galactosidase (Escherichia coli, UniProt Q8VNN2); assay: Dose response counterscreen for EBI2 assay utilizing the enzyme, b-galactosidase.; assay type: functional
[4] = target: Lysosomal acid glucosylceramidase (Homo sapiens, UniProt P04062); assay: Dose response cell-based high throughput screening assay to identify enhancers of beta-glucosidase activity. [Related pubchem assays: 784 ]; assay type: functional
Lysosomal acid glucosylceramidase, sequence (P04062 whole entry): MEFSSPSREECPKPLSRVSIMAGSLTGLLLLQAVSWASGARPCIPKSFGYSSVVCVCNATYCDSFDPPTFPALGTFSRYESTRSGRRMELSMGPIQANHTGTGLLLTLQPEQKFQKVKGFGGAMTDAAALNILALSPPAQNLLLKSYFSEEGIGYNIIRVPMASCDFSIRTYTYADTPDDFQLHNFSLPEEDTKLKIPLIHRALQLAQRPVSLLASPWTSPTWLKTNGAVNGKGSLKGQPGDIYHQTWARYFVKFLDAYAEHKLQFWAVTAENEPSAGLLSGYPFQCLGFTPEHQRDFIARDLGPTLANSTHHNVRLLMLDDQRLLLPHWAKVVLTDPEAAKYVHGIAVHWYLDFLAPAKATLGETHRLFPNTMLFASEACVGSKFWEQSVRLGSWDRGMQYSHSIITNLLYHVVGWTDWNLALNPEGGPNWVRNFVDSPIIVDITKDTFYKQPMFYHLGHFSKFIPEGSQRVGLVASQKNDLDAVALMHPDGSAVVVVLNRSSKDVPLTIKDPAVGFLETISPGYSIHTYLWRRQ

[5] = target: T2, Replicative DNA helicase DnaB (Mycobacterium tuberculosis, UniProt P9WMR3); assay: DnaB intein splicing inhibitors, dose response, biochemical, cell-free fluorescence (AID 449749); assay type: functional
T2 sequence (P9WMR3 whole entry): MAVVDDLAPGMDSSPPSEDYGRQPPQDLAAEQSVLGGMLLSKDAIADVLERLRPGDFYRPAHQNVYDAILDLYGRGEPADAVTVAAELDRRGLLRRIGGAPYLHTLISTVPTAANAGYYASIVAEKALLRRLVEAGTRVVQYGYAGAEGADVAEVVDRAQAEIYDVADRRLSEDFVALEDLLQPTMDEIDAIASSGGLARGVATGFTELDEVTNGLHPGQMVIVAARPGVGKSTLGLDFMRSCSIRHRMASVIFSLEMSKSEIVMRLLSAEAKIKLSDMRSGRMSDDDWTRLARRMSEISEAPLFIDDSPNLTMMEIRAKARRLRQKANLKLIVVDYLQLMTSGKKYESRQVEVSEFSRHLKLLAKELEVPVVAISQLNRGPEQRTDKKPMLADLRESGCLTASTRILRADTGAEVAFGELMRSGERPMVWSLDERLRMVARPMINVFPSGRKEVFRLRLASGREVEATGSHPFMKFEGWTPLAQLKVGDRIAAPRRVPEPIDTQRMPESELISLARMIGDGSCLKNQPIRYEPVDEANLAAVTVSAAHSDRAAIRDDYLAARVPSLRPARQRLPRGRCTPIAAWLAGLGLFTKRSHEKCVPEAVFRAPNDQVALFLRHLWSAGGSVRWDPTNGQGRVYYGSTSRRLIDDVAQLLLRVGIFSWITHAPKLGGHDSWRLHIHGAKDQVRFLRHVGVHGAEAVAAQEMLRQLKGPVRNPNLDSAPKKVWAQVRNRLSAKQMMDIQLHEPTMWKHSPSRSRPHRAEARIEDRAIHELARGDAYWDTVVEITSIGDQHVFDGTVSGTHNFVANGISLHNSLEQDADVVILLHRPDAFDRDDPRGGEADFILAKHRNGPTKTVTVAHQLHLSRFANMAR

Protein RecA = target: T3, Protein RecA (Mycobacterium tuberculosis, UniProt P9WHJ3); assay: Fluorescence Cell-Free Homogeneous Dose Retest to Identify Inhibitors of RecA-Intein Splicing Activity. [Related pubchem assays (depositor defined):AID2097, AID2223, AID489010, AID492950]; assay type: functional
T3 sequence (P9WHJ3 whole entry): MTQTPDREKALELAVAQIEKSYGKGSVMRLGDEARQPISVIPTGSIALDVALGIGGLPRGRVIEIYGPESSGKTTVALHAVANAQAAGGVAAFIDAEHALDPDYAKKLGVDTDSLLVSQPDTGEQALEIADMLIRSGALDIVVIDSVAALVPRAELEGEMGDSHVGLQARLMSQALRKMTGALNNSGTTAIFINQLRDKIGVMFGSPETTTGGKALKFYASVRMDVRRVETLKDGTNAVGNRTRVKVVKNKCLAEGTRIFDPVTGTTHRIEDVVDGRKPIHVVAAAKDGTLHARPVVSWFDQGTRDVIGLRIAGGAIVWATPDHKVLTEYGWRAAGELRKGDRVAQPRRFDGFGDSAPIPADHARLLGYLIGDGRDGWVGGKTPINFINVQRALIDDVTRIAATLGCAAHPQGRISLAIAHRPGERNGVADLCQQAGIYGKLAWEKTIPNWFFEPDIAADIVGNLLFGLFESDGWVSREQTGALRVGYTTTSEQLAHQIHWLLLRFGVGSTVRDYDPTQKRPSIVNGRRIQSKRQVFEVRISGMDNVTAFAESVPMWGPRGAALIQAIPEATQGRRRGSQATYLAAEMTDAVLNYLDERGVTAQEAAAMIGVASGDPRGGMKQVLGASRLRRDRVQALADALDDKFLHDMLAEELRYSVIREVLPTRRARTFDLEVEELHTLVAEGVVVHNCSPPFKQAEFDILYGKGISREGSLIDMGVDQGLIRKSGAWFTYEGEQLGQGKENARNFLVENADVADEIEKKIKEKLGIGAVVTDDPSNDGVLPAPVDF

[6] = target: T4, Alkaline phosphatase, tissue-nonspecific isozyme (Homo sapiens, UniProt P05186)
T4 sequence (P05186 whole entry): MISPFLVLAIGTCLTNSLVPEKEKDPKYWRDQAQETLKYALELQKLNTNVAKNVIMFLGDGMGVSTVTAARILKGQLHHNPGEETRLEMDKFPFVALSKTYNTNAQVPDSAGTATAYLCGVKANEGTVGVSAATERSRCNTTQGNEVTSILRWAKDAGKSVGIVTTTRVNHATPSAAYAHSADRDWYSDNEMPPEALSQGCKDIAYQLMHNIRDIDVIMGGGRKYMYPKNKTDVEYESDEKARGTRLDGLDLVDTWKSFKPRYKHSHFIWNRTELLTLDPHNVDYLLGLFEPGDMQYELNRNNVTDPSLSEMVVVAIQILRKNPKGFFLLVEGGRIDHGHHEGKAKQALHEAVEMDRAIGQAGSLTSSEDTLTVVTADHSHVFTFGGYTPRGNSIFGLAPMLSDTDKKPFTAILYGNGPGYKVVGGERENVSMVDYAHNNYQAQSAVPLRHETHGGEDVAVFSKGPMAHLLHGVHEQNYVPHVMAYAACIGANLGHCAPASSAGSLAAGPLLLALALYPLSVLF

[7] = M. tuberculosis H37Rv growth inhibitors, H37Rv strain (AID 1626); assay type: functional
BJ [8] = assay: cytotoxicity toward Ras-transformed BJeLR fibroblasts, dose response, cell-based, alamar blue fluorescence, cherrypicked samples (AID 2631); assay type: functional; settings: Homo sapiens;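 also: confirmatory dose-response assay in RAS-dependent BJ fibroblasts engineered with TERT, LT and ST, with cytotoxicity read by fluorescence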
BJ [9] = assay: cells; assay type: functional, cell-based; settings: Homo sapiens
[10] = Luminescence-based dose response cell-based high throughput screening assay for cytotoxic compounds using the IEC-6 intestinal epithelial cell line. [Related pubchem assays: 1858 (Summary AID.), 1825 (Counterscreen.), 1907 (Confirmation screen.)]; assay type: functional
[11] = cytotoxicity toward DRD oncogenic fibroblasts, dose response, cell-based, non-viral oncogenic, luminescence (AID 1934); assay type: functional; settings: Homo sapiens
[12] = cytotoxicity in HEK-293T cells, dose response, cytotoxicity control for TCR NF-kB inhibitor project, luminescence, T-cell screen hits (AID 489026); assay type: functional, cell-based;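 also: cells exposed to compound about 14 hours before the viability readout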
BJ [13] = assay: cytotoxicity toward BJ-TERT fibroblasts, dose response, cell-based, RAS-independent, luminescence (AID 1933); assay type: functional; settings: Homo sapiens
[14] = Luminescence Cell-Based Dose Response HTS to Identify Inhibitors of 5'UTR Stem-Loop Driven Prion Protein mRNA Translation in H4 Neuroglioblastoma Cells. [Related pubchem assays: 1827 (Project Summary), 1813 (Primary HTS)]; assay type: functional
[15] = inhibitors of SNCA 5'UTR-driven reporter translation, confirmation, H4 neuroglioma cells, luminescence (AID 1988); assay type: functional, cell-based
Paired box protein Pax-8 = Paired box protein Pax-8 (Homo sapiens, UniProt Q06710); assay: inhibitors of PAX8-driven TPO luciferase reporter, dose response, RMG-I cells, cherry-pick (AID 687027); assay type: functional, cell-based;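 also: luciferase reporter driven by Pax8 target thyroperoxidase promoter measured by SteadyGlo luminescence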
Paired box protein Pax-8, sequence (Q06710 whole entry): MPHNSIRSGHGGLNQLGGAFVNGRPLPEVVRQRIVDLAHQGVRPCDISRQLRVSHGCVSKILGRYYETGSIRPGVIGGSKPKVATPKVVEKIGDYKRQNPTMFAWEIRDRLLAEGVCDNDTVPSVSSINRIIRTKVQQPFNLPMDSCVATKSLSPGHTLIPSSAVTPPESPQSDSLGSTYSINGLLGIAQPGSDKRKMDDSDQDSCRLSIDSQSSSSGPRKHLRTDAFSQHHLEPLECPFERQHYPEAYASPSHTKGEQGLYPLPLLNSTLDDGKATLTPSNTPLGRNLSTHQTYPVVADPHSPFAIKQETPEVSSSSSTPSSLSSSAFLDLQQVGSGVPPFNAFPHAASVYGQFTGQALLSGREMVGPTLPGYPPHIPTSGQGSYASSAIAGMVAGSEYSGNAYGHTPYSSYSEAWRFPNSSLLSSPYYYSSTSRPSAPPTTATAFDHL

[16] = inhibitors of firefly luciferase expression or activity, dose response, H4 neuroglioma cells, luminescence (AID 1990); assay type: functional, cell-based
BJ [17] = assay: cytotoxicity toward BJ-TERT-LT-ST fibroblasts, dose response, cell-based, RAS-independent, luminescence (AID 1935); assay type: functional; settings: Homo sapiens;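 also: BJ fibroblasts immortalized with TERT plus LT and ST oncogenes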
[18] = target: Peroxisome proliferator-activated receptor gamma/Nuclear receptor coactivator 2 (Homo sapiens, UniProt P37231); assay type: functional;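 also: agonist potency for raising coactivator recruitment to the receptor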
Peroxisome proliferator-activated receptor gamma/Nuclear receptor coactivator 2, sequence (P37231 whole entry): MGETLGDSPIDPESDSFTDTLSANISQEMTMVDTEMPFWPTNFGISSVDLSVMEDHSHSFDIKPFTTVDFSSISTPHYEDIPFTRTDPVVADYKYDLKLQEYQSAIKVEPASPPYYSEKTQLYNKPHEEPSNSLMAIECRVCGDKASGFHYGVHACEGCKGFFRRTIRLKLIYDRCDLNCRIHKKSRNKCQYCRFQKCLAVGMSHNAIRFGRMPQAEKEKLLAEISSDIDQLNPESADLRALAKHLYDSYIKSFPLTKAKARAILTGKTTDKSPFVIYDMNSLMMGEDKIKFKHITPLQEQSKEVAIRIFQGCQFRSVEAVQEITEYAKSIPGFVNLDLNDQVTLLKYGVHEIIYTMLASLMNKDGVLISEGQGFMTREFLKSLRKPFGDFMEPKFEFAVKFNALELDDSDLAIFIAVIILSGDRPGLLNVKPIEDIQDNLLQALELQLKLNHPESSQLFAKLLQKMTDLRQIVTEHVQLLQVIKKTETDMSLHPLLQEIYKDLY
Peroxisome proliferator-activated receptor gamma/Nuclear receptor coactivator 2, sequence (Q15596 whole entry, further chain): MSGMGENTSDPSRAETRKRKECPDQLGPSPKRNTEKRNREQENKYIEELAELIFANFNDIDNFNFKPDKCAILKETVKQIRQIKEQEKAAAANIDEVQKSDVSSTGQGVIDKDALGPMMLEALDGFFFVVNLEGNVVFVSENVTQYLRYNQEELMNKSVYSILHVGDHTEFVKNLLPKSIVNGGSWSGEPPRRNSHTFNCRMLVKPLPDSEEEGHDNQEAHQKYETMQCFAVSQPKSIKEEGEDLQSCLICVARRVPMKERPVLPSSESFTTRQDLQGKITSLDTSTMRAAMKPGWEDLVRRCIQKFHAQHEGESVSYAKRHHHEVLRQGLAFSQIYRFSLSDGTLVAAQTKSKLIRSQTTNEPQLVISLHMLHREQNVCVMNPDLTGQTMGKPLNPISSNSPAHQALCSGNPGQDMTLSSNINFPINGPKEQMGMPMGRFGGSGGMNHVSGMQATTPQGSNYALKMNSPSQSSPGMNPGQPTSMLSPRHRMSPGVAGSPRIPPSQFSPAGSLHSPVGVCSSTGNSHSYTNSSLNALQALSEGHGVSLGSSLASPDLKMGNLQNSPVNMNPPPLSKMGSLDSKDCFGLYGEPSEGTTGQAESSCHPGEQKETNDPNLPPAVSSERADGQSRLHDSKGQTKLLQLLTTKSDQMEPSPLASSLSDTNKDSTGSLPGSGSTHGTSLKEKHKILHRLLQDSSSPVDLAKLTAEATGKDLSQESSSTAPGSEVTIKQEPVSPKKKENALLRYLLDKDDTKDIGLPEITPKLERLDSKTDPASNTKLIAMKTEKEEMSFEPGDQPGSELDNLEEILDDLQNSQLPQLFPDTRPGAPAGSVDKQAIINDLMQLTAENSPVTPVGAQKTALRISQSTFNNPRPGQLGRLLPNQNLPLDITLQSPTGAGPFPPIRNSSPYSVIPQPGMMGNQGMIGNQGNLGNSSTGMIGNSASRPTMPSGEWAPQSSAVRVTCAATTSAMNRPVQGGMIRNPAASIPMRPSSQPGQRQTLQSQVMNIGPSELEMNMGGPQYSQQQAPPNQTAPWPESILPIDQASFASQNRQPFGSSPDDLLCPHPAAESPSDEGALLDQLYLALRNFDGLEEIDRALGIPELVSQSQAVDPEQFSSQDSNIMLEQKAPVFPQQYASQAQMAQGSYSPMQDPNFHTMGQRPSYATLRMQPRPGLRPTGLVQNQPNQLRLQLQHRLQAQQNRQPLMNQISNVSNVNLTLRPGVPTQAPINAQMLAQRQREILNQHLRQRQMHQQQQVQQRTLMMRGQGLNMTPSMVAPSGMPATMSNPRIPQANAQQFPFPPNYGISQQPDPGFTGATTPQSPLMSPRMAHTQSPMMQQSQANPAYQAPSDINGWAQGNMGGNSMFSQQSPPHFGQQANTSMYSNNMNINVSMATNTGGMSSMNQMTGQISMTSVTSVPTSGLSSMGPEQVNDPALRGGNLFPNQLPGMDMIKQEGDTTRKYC

[19] = target: Peroxisome proliferator-activated receptor gamma/Nuclear receptor coactivator 1 (Homo sapiens, UniProt P37231); assay type: functional;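 also: agonist potency as compounds enhance coactivator SRC-1 recruitment to PPARgamma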
[20] = target: Peroxisome proliferator-activated receptor gamma/Nuclear receptor coactivator 3 (Homo sapiens, UniProt P37231); assay type: functional;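 also: agonist potency for raising coactivator recruitment to the receptor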
Peroxisome proliferator-activated receptor gamma/Nuclear receptor coactivator 3, sequence (P37231 whole entry): as the sequence (P37231 whole entry) above
Peroxisome proliferator-activated receptor gamma/Nuclear receptor coactivator 3, sequence (Q9Y6Q9 whole entry, further chain): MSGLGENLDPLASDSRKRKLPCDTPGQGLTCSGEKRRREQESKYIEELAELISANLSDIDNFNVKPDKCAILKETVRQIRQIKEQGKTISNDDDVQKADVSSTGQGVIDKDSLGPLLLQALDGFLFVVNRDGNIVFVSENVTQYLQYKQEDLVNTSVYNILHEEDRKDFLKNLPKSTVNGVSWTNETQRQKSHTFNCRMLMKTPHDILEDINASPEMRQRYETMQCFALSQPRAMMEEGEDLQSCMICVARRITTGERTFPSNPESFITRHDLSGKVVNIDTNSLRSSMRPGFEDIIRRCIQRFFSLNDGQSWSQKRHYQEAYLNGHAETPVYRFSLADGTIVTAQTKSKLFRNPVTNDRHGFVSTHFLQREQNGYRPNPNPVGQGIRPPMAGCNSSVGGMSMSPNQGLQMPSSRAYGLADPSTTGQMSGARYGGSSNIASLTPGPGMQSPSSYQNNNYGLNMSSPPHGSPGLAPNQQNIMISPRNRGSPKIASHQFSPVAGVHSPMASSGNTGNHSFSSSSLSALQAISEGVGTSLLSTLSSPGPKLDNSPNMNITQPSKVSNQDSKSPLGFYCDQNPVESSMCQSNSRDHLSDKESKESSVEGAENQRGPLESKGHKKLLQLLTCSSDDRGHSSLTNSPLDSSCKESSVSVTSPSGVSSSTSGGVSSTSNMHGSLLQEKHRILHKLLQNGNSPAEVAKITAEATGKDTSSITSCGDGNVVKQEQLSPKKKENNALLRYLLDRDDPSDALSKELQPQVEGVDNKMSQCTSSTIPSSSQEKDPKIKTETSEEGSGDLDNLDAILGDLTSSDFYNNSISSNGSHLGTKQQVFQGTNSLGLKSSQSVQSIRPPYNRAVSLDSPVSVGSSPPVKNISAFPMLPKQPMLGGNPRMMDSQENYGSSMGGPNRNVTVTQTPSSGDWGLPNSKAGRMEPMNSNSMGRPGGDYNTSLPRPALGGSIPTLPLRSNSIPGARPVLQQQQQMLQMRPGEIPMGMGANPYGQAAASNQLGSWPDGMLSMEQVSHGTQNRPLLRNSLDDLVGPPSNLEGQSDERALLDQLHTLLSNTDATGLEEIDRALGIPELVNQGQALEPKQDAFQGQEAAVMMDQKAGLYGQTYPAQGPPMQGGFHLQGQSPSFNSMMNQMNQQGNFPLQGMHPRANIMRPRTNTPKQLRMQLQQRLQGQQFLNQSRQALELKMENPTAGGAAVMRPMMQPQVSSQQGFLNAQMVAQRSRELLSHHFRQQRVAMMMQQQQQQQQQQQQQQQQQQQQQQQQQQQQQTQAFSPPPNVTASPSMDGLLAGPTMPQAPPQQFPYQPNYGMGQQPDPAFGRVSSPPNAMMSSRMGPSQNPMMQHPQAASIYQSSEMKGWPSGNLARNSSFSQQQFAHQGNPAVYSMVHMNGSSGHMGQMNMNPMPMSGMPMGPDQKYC

[21] = target: Melanin-concentrating hormone receptor 1 (Homo sapiens, UniProt Q99705); assay: Fluorescence-based counterscreen for antagonists of the G-protein coupled receptor 7 (GPR7): cell-based high throughput dose response assay to identify antagonists of the melanin-concentrating hormone receptor 1 (MCHR1).; assay type: functional
[22] = target: T5, Neuropeptides B/W receptor type 1 (Homo sapiens, UniProt P48145); assay: Fluorescence-based dose response cell-based high throughput screening assay to identify antagonists of the G-protein coupled receptor 7 (GPR7). [Related pubchem assays: 1952 (Screening assay (GPR7 antagonists).), 1880 (Summary AID.)]; assay type: functional
T5 sequence (P48145 whole entry): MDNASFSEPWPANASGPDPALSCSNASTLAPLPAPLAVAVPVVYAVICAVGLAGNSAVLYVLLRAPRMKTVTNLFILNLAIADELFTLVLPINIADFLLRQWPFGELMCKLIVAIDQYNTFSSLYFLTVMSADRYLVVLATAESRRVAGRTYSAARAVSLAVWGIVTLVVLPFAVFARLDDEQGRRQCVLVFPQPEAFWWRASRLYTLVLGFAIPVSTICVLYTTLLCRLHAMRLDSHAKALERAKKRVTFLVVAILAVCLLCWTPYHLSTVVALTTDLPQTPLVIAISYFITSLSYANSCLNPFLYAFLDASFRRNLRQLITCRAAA

COc1ccc2oc(C(=O)N3CCN(C(c4ccccc4)c4ccccc4)CC3)c(C)c2c1
EC50 [1]: 32.2 µM (active) | EC50 (Streptokinase A): 4.97 µM (active) | EC50 (Streptococcus [2]): > 150 µM (not active) | EC50 (Streptococcus [3]): > 500 µM (not active) | IC50 (Beta-galactosidase): > 80 µM (inactive)

O=C(CCCn1c(=S)[nH]c2cc3c(cc2c1=O)OCO3)N1CCN(c2ncccn2)CC1
EC50 [4]: > 50 µM (not active)

CC(C)(C)NC(=O)CSc1nnc(-c2ccco2)n1Cc1ccco1
EC50 [4]: > 50 µM (not active)

CC/C(=C/c1sc2ccc(C)cc2[n+]1CCO)SC
AC50 [5]: > 380 µM (inactive) | EC50 (Protein RecA): 14.2 µM (active) | EC50 [6]: > 100 µM (not active)

Cc1ccc2[nH]c(SCC(=O)Nc3ccc4c(c3)CCC4)nc2c1
IC50 [7]: > 100 µM (active)

COc1ccc(CCNc2nnc(Sc3nnnn3-c3ccccc3)s2)cc1OC
EC50 (BJ [8]): 0.616 µM (active) | EC50 (BJ [9]): 3.24 µM (active) | IC50 [10]: 2.49 µM (active) | EC50 [11]: 2.38 µM (active) | IC50 [12]: > 80 µM (inactive) | EC50 (BJ [13]): 2.95 µM (active) | EC50 [14]: 10.8 µM (active) | EC50 [15]: 5.09 µM (active) | AC50 (Paired box protein Pax-8): 4.21 µM (active) | EC50 [16]: 5.51 µM (active) | EC50 (BJ [17]): 2.35 µM (inconclusive)

COc1ccc2nc(C)cc(SCC(=O)Nc3c(C)cc(C)cc3C)c2c1
EC50 [18]: 27.8 µM (not active) | EC50 [19]: 55.2 µM (not active) | EC50 [20]: > 79.4 µM (not active) | EC50 [6]: > 100 µM (not active)

Cc1cc2oc(=O)cc(CN(C)Cc3ccccc3)c2cc1C(C)C
EC50 [1]: 13.3 µM (active) | EC50 (Streptokinase A): 8.46 µM (active) | EC50 (Streptococcus [2]): > 150 µM (not active) | EC50 (Streptococcus [3]): > 500 µM (not active)

O=C(NC1CCCCCCC1)C1c2ccccc2C(=O)N1Cc1ccco1 (stereo not drawn)
IC50 [21]: > 43.8 µM (not active) | IC50 [22]: > 43.8 µM (not active)

O=C(O)C1CCCCC1C(=O)Nc1ccccc1Nc1ccccc1 (stereo not drawn)
IC50 [7]: > 100 µM (active)
